The source of these data is publication PMC6175823, “Identification of novel acetylcholinesterase inhibitors designed by pharmacophore-based virtual screening, molecular docking and bioassay” (Scientific Reports, 2018).

The structures appear in SMILES notation. “Also recorded” adds a separate entry of the source.

Experiment [1] addresses T1, Acetylcholinesterase from electrophorus electricus (electric eel) (Electrophorus electricus, UniProt O42275).
T1 construct: purchased Sigma (St. Louis, MO)
Briefly: biochemical. Particulars: modified Ellman's method, eeAChE; read-out: AchE IC50. The text has this: Acetylcholinesterase from electrophorus electricus (electric eel), horse butyrylcholinesterase, Acetylcholine iodide, S-butyrylthiocholine chloride and 5,5′-dithio-bis-nitrobenzoic acid (DTNB) were purchased from the Sigma (St. Louis, MO) while bovine serum albumin (BSA) purchased from Research and Diagnostic Technology (RDT). Buffers and other chemicals were purchases from pure chemicals as a pure experimental grade. All the reagents and experimental conditions were same as described by previous reports. […] Acetylcholinesterase and butyrylcholinesterase inhibition was performed spectrometrically using acetylthiocholine and butyrylthiocholine as a substrate. Experiment was performed with slight modification in the method described by Ellman et al.[78]. Then, […] sodium phosphate buffer (pH 8.0), enzyme preparation and different concentration of test compound was mixed and incubated for 30 min followed by the addition of DTNB and the reactions was initiated by adding respective enzyme substrate like acetylthiocholine iodide, butyrylthiocholine chloride for Acetylcholinesterase and butyrylcholinesterase inhibition assay respectively. The hydrolysis of acetylthiocholine or butyrylthiocholineyield a dark yellow 5-thio-2-nitrobenzoate anion because of the reaction between DTNB with enzyme and enzyme substrate. […] Percentage inhibition was calculated taking negative control as 100%.

Experiment [2] addresses T2, horse butyrylcholinesterase (Equus caballus, UniProt P81908).
T2 construct: purchased Sigma (St. Louis, MO)
Put plainly: biochemical. It counts as biochemical. The text has this: Acetylcholinesterase from electrophorus electricus (electric eel), horse butyrylcholinesterase, Acetylcholine iodide, S-butyrylthiocholine chloride and 5,5′-dithio-bis-nitrobenzoic acid (DTNB) were purchased from the Sigma (St. Louis, MO) while bovine serum albumin (BSA) purchased from Research and Diagnostic Technology (RDT). Buffers and other chemicals were purchases from pure chemicals as a pure experimental grade. All the reagents and experimental conditions were same as described by previous reports. […] Acetylcholinesterase and butyrylcholinesterase inhibition was performed spectrometrically using acetylthiocholine and butyrylthiocholine as a substrate. Experiment was performed with slight modification in the method described by Ellman et al.[78]. Then, […] sodium phosphate buffer (pH 8.0), enzyme preparation and different concentration of test compound was mixed and incubated for 30 min followed by the addition of DTNB and the reactions was initiated by adding respective enzyme substrate like acetylthiocholine iodide, butyrylthiocholine chloride for Acetylcholinesterase and butyrylcholinesterase inhibition assay respectively. The hydrolysis of acetylthiocholine or butyrylthiocholineyield a dark yellow 5-thio-2-nitrobenzoate anion because of the reaction between DTNB with enzyme and enzyme substrate. […] Solvent used for compound dilution was used for the negative control. Percentage inhibition was calculated taking negative control as 100%.

The test system of experiment [3] is bAchE. Particulars: read-out: bAchE IC50; Tacrine (Ellman method); source not given; cited from earlier work.

T2 sequence (P81908 whole entry): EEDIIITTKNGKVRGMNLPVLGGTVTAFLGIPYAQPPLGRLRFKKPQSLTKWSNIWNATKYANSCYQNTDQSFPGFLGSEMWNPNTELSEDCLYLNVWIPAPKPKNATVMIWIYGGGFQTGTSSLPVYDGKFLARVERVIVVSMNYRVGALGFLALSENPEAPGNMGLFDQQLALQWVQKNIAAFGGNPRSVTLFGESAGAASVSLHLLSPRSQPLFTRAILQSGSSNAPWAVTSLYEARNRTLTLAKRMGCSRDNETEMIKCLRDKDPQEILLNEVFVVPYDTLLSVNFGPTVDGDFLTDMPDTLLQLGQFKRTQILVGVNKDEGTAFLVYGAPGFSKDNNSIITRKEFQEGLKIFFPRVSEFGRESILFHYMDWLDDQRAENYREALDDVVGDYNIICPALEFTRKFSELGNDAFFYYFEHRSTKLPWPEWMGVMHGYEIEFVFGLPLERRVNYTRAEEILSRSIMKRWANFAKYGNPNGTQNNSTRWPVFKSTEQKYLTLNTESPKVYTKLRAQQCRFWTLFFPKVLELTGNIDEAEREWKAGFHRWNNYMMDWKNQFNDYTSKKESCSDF
T1 sequence (O42275 24-633): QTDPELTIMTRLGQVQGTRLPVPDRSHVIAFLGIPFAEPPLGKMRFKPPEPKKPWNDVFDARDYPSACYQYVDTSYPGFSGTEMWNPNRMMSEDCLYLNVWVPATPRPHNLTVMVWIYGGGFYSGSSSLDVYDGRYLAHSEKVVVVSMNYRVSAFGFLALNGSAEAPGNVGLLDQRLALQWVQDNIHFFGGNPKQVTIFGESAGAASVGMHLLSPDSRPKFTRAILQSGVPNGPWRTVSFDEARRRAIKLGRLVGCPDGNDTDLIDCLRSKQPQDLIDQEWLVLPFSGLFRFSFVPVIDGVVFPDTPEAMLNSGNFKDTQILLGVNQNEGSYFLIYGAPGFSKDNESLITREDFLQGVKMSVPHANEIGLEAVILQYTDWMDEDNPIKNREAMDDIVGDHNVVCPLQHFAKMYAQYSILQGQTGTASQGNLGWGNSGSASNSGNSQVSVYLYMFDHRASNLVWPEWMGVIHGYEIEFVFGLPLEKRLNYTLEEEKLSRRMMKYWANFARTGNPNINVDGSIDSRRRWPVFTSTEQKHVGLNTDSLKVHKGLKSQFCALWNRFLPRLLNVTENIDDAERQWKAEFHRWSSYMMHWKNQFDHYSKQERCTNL

Take `COc1ccccc1OCCN(Cc1ccccc1)CC(O)CC(O)c1cccc2[nH]c3ccccc3c12` (stereo not shown) [6a, 4-(benzyl(2-(2-methoxyphenoxy)ethyl)amino)-1-(9H-carbazol-4-yl)butane-1,3-diol]: the IC50 in experiment [1] is 66 µM; in experiment [2] (modified Ellman's method, horse BuChE, read-out: bAchE IC50) it was greater than 500 µM. Further, in experiment [2] (result in words), the “effect against BchE” value is given as “without inhibiting; also recorded: did not showed the effect”.
For `Nc1c2c(nc3ccccc13)CCCC2` [Tacrine], the IC50 in experiment [3] is 0.058 µM.
